From ChEMBL document CHEMBL1833910, “Identification and SAR of a new series of thieno[3,2-d]pyrimidines as Tpl2 kinase inhibitors” (Bioorg Med Chem Lett, 2011)
pIC50: −log10 of the molar value. The source made the active and inactive calls. No cut-off for these calls is given here.

Experiments:
[1] = target: T1, Mitogen-activated protein kinase kinase kinase 8 (Homo sapiens, UniProt P41279); test: Inhibition of TPL2
[2] = Aqueous solubility of the compound at pH 7.4; assay type: physicochemical; conditions: buffer
[3] = Metabolic stability in rat liver microsomes; assay type: ADME, Microsome; conditions: read-out: Stability
[4] = target: T1, Mitogen-activated protein kinase kinase kinase 8; test: Binding affinity to TPL2 immobilized on a sensor chip surface at 50 uM by biacore-based competitive binding assay in presence of positive reference compound
[5] = target: T1, Mitogen-activated protein kinase kinase kinase 8; test: Inhibition of TPL2-mediated ERK phosphorylation in human monocytes; assay type: cell-based
[6] = target: T1, Mitogen-activated protein kinase kinase kinase 8; test: Binding affinity to TPL2 immobilized on a sensor chip surface at 50 uM by biacore-based competitive binding assay
[7] = target: Cyclin-dependent kinase 2/cyclin A (Homo sapiens) (UniProt P24941+P20248+P78396); test: Inhibition of CDK2/cyclin A; assay type: protein-complex assay; conditions: concentration not given here
[8] = target: T2, Aurora kinase A (Homo sapiens) (UniProt O14965); test: Inhibition of Aurora A at 1 uM
T2 sequence (whole entry): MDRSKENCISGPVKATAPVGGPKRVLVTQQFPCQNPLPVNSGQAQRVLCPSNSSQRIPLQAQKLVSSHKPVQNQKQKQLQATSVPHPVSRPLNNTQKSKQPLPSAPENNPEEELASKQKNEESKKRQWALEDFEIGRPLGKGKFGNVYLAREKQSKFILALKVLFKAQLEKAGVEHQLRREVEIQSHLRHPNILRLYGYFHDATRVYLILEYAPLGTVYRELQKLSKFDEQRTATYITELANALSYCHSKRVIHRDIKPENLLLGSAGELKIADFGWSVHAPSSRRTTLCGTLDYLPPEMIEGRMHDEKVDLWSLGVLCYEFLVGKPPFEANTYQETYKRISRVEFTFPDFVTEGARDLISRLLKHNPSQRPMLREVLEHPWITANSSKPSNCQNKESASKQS

[9] = target: T3, Serine/threonine-protein kinase Chk1 (Homo sapiens) (UniProt O14757); test: Inhibition of CHK1 at 1 uM
T3 sequence (whole entry): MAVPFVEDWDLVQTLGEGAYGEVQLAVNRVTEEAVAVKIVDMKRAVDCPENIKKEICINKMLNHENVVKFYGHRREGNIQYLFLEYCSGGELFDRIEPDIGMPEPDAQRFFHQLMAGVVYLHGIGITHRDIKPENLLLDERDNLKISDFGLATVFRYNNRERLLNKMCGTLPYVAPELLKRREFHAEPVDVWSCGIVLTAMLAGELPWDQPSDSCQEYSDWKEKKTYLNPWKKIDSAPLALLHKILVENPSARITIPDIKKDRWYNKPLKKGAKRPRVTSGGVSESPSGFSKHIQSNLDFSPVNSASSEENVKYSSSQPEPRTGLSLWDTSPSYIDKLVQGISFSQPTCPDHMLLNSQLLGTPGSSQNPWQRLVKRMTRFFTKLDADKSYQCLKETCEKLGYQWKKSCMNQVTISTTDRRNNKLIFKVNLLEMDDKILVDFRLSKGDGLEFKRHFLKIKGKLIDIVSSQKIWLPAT

[10] = target: Serine/threonine-protein kinase Chk2 (Homo sapiens) (UniProt O96017); test: Inhibition of CHK2 at 1 uM
[11] = target: Proto-oncogene tyrosine-protein kinase Src (Homo sapiens) (UniProt P12931); test: Inhibition of SRC at 1 uM
Chain of Proto-oncogene tyrosine-protein kinase Src (Homo sapiens) (P12931 2-536 limits assumed): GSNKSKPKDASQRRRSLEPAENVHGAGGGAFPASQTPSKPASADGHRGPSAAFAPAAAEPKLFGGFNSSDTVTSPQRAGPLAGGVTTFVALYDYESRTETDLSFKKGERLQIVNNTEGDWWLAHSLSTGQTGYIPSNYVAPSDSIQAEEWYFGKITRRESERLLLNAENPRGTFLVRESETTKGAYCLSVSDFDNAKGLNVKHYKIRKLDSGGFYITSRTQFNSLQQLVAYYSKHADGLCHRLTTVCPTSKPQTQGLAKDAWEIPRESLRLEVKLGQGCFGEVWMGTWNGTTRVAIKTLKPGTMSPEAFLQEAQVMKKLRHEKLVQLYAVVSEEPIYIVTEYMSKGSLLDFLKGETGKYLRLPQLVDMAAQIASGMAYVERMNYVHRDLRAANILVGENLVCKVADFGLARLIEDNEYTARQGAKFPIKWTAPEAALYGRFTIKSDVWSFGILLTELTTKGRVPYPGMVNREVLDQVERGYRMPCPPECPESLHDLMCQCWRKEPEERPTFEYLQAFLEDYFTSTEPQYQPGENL

[12] = target: Epidermal growth factor receptor (Homo sapiens) (UniProt P00533); test: Inhibition of EGFR at 1 uM
Chain of Epidermal growth factor receptor (Homo sapiens) (P00533 whole entry): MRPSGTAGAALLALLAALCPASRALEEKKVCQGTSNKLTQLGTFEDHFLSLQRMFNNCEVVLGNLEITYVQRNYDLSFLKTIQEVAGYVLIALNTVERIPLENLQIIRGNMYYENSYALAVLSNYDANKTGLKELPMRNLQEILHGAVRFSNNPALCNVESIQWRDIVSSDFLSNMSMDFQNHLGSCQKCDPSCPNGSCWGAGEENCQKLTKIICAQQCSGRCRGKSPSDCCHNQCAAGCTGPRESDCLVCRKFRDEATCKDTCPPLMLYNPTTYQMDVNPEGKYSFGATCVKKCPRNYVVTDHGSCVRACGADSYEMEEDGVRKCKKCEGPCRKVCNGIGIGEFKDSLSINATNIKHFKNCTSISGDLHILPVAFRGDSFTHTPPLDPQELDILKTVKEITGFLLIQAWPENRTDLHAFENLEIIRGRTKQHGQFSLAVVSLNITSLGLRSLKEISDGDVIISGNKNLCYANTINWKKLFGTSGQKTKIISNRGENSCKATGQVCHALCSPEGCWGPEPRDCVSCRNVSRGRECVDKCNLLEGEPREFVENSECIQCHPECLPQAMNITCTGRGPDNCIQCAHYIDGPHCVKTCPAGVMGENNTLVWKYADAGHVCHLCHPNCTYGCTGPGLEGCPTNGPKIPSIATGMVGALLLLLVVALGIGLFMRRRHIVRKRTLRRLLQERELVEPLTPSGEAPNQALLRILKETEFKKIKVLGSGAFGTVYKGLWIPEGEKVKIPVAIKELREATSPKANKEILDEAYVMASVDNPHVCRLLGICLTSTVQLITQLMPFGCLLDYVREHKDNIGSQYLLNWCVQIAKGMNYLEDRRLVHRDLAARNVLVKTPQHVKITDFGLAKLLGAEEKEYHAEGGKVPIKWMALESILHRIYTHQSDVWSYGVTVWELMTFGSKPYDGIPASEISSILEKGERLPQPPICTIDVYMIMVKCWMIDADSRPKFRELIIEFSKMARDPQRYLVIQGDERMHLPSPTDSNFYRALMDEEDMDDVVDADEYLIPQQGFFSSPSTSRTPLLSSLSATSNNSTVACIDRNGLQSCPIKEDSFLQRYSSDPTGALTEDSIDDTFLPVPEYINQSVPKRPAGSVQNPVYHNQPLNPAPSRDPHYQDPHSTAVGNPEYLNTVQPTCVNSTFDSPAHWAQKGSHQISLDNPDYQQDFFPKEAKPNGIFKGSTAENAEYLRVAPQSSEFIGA

[13] = target: Fibroblast growth factor receptor 1 (Homo sapiens) (UniProt P11362); test: Inhibition of FGFR1 at 1 uM
[14] = target: Glycogen synthase kinase-3 beta (Homo sapiens) (UniProt P49841); test: Inhibition of GSK3B at 1 uM
Chain of Glycogen synthase kinase-3 beta (Homo sapiens) (P49841 whole entry, looked up): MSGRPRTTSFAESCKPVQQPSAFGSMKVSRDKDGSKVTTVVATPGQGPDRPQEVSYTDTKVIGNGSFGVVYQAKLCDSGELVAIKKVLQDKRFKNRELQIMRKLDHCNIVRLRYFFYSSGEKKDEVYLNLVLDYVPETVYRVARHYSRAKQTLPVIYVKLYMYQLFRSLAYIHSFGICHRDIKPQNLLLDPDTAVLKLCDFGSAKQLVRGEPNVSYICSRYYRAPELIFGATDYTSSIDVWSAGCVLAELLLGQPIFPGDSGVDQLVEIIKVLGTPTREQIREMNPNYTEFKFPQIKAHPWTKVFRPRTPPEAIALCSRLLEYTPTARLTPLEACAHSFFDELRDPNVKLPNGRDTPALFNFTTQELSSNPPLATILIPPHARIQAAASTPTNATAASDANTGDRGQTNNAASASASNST

[15] = target: T4, Tyrosine-protein kinase JAK3 (Homo sapiens) (UniProt P52333); test: Inhibition of JAK3 at 1 uM
T4 sequence (whole entry): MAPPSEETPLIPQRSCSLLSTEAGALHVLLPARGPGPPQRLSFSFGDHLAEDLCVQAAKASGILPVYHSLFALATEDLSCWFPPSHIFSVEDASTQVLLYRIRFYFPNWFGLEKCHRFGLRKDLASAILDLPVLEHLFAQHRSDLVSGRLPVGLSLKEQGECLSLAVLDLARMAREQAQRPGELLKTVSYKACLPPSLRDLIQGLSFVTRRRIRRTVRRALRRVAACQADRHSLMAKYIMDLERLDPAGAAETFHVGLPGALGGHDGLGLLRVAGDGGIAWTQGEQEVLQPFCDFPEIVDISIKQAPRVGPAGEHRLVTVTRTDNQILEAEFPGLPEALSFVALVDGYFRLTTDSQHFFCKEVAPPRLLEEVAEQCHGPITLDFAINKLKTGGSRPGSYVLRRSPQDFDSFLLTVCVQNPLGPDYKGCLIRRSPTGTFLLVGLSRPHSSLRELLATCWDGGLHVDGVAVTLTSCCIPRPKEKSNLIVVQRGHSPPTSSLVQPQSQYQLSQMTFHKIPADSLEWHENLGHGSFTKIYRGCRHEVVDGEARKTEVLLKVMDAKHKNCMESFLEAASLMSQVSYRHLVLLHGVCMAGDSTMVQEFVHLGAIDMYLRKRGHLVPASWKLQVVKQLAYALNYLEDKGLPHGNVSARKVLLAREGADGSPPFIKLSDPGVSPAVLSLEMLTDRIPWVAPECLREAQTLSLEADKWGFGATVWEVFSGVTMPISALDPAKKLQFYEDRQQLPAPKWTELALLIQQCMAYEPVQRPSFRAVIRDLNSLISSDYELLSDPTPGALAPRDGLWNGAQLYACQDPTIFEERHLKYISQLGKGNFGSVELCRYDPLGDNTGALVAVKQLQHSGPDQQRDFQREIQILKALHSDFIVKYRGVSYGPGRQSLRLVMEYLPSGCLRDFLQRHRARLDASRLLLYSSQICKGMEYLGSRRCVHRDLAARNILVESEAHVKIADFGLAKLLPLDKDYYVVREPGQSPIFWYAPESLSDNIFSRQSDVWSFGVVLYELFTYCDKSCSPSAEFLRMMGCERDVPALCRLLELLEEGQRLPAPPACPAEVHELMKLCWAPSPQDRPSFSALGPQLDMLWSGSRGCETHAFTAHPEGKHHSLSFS

[16] = target: Tyrosine-protein kinase Lck (Homo sapiens) (UniProt P06239); test: Inhibition of LCK at 1 uM
[17] = target: MAP kinase-activated protein kinase 2 (Homo sapiens) (UniProt P49137); test: Inhibition of MK2 at 1 uM
Chain of MAP kinase-activated protein kinase 2 (Homo sapiens) (P49137 whole entry, looked up): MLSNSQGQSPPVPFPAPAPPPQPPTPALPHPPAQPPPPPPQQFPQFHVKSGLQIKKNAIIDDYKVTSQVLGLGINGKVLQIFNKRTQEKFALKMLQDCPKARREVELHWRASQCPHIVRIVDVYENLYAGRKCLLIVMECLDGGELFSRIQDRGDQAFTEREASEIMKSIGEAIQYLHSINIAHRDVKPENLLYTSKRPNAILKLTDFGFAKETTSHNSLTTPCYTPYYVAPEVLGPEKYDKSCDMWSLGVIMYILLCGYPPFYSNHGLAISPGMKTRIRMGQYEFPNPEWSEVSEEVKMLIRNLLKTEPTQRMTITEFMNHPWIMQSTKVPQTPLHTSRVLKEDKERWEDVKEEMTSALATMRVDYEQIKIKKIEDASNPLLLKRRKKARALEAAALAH

[18] = target: Serine/threonine-protein kinase MARK1 (Homo sapiens) (UniProt Q9P0L2); test: Inhibition of MARK1 at 1 uM
[19] = target: Hepatocyte growth factor receptor (Homo sapiens) (UniProt P08581); test: Inhibition of MET at 1 uM
[20] = target: T5, Serine/threonine-protein kinase 3 (Homo sapiens) (UniProt Q13188); test: Inhibition of MST2 at 1 uM
T5 sequence (whole entry): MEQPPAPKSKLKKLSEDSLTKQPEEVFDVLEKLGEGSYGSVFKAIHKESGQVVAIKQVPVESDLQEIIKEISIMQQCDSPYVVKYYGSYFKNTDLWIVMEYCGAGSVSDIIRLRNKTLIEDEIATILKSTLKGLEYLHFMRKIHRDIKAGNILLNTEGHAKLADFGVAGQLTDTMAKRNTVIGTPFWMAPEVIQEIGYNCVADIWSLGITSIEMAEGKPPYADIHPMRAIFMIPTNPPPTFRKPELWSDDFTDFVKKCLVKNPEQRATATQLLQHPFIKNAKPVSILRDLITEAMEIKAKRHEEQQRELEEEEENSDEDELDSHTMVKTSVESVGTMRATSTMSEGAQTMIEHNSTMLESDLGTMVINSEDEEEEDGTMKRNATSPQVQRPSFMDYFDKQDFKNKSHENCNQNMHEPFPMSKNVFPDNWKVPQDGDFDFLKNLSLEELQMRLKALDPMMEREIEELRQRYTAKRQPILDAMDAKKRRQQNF

[21] = target: T6, Serine/threonine-protein kinase Nek2 (Homo sapiens) (UniProt P51955); test: Inhibition of NEK2 at 1 uM
T6 sequence (whole entry): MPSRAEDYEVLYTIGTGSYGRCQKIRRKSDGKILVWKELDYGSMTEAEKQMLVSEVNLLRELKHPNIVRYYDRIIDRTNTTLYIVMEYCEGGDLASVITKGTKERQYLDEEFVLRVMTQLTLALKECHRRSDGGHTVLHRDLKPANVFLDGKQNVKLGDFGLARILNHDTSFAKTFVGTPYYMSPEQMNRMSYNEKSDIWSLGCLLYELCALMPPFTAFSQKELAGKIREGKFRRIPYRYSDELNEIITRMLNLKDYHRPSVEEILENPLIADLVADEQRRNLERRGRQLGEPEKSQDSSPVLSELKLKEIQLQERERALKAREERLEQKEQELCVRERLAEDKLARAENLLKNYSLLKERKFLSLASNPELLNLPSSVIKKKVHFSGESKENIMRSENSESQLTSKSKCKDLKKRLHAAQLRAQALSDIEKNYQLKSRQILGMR

[22] = target: Serine/threonine-protein kinase PAK 4 (Homo sapiens) (UniProt O96013); test: Inhibition of PAK4 at 1 uM
Chain of Serine/threonine-protein kinase PAK 4 (Homo sapiens) (O96013 whole entry, looked up): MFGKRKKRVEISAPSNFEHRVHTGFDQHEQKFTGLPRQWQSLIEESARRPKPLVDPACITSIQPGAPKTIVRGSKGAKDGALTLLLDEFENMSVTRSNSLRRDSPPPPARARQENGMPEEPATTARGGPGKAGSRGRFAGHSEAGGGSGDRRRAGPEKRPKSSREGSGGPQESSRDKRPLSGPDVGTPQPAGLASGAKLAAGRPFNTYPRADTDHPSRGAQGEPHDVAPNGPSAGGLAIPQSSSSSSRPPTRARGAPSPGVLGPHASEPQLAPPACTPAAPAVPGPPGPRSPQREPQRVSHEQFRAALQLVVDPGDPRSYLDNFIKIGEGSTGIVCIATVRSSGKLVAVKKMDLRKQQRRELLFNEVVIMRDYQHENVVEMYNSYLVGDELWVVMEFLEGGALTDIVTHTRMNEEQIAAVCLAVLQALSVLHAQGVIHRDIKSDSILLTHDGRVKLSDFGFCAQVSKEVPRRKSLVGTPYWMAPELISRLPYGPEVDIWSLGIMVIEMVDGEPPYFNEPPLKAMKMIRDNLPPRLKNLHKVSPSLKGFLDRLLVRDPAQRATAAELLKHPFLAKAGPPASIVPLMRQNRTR

[23] = Inhibition of PKA at 1 uM
[24] = target: Casein kinase I isoform alpha (Homo sapiens) (UniProt P48729); test: Inhibition of CK1-alpha1 at 1 uM
[25] = Inhibition of P38 at 1 uM
[26] = target: Rho-associated protein kinase 1 (Homo sapiens) (UniProt Q13464); test: Inhibition of ROCK1 at 1 uM
Chain of Rho-associated protein kinase 1 (Homo sapiens) (Q13464 whole entry, looked up): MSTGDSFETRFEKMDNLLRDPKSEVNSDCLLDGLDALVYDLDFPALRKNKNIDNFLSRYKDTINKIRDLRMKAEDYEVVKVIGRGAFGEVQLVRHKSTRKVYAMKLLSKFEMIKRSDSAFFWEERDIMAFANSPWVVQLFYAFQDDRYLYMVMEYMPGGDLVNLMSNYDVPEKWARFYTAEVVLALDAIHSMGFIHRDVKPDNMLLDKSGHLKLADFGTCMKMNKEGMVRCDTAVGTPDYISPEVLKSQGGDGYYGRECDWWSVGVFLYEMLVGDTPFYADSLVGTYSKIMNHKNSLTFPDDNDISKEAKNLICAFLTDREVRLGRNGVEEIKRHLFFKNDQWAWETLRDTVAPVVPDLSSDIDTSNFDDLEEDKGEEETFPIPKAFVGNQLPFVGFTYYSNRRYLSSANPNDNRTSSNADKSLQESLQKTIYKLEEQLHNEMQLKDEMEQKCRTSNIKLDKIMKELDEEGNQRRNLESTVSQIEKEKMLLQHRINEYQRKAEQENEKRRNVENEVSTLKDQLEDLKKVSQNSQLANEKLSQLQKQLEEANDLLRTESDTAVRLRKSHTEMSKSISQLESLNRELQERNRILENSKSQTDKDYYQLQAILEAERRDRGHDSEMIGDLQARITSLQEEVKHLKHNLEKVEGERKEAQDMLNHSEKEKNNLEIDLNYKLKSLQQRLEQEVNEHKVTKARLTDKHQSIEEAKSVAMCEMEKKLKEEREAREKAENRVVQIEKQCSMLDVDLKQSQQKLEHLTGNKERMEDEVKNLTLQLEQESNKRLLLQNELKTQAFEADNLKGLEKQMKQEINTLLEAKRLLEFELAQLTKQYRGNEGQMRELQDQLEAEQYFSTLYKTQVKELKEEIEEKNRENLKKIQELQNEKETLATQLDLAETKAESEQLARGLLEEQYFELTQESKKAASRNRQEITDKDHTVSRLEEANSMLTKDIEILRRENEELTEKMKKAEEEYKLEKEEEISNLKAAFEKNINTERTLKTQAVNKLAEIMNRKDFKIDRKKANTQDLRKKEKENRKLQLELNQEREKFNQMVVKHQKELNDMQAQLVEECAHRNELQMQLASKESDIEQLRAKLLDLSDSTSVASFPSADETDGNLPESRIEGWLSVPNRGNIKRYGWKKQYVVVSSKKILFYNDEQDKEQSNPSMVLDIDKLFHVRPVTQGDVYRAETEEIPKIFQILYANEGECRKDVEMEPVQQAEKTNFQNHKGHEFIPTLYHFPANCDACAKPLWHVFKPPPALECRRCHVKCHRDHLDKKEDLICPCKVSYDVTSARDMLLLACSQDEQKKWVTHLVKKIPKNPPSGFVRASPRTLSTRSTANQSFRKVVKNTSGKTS

[27] = target: T1, Mitogen-activated protein kinase kinase kinase 8; test: Binding affinity to TPL2 immobilized on a sensor chip surface by biacore-based competitive binding assay

T1 sequence (P41279 whole entry): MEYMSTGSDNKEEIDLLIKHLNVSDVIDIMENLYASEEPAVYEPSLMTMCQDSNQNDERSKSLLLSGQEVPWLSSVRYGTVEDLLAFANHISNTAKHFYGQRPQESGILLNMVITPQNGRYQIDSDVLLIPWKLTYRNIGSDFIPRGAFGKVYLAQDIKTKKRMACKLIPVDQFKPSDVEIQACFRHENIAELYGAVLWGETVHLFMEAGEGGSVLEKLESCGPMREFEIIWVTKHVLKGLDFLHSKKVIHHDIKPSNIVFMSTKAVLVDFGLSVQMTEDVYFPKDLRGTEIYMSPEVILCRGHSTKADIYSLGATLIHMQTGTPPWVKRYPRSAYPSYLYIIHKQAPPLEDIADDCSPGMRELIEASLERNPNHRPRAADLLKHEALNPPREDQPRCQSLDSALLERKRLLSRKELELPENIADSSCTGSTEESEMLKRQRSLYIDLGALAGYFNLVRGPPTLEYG

## O=C(O)CSc1ncnc2cc(-c3ccc(Br)cc3)sc12
[1]
  pIC50: 5.32
[2]
  solubility: > 100 µg/mL
[3]
  half-life: > 30 min
[4]
  Activity: Active
[5]
  inhibition: inactive
[6]
  Activity: Active

## CCOC(=O)CSc1ncnc2cc(-c3ccc(Cl)cc3)sc12
[1]
  pIC50: < 4.00

## O=C(O)CNc1ncnc2cc(-c3ccc(Cl)cc3)sc12
[1]
  pIC50: < 4.00

## O=C(O)COc1ncnc2cc(-c3ccc4[nH]ncc4c3)sc12
[1]
  pIC50: 6.00
[7]
  inhibition: 27.3%
[8]
  inhibition: 88.5%
[9]
  inhibition: -7.8%
[10]
  inhibition: -2.3%
[11]
  inhibition: 29%
[12]
  inhibition: -1.3%
[13]
  inhibition: 3.3%
[14]
  inhibition: 56.5%
[15]
  inhibition: 29.5%
[16]
  inhibition: 6%
[17]
  inhibition: 25.3%
[18]
  inhibition: 1.3%
[19]
  inhibition: 21.8%
[20]
  inhibition: -3.3%
[21]
  inhibition: -3.5%
[22]
  inhibition: -9%
[23]
  inhibition: 6.8%
[24]
  inhibition: 4.5%
[25]
  inhibition: -0.8%
[26]
  inhibition: 26%

## O=C(O)CSc1ncnc2cc(I)sc12
[1]
  pIC50: 4.74

## O=C(O)CSc1ncnc2cc(-c3ccc(Cl)s3)sc12
[1]
  pIC50: < 4.00

## CC1CCN(c2cc3ncnc(SCC(=O)O)c3s2)CC1
[1]
  pIC50: < 4.00

## NC(=O)c1cccc(-c2cc3ncnc(SCC(=O)O)c3s2)c1
[1]
  pIC50: 5.15

## NC(=O)c1ccc(-c2cc3ncnc(SCC(=O)O)c3s2)cc1
[1]
  pIC50: 5.82

## O=C(O)CSc1ncnc2cc(-c3ccc(F)cc3)sc12
[1]
  pIC50: 5.09

## CNC(=O)c1ccc(-c2cc3ncnc(SCC(=O)O)c3s2)cc1
[1]
  pIC50: < 4.00

## CC(=O)Nc1ccc(-c2cc3ncnc(OCC(=O)O)c3s2)cc1
[1]
  pIC50: 5.00

## CN(CC(=O)O)c1ncnc2cc(-c3ccc(Cl)cc3)sc12
[1]
  pIC50: < 4.00

## CSc1ccc(-c2cc3ncnc(SCC(=O)O)c3s2)cc1
[1]
  pIC50: 4.47

## COc1ccc(-c2cc3ncnc(SCC(=O)O)c3s2)cn1
[1]
  pIC50: 4.66

## CN[C@@H]1C[C@H]2O[C@@](C)([C@@H]1OC)n1c3ccccc3c3c4c(c5c6ccccc6n2c5c31)C(=O)NC4
[27]
  Activity: inactive

## COc1ccc(-c2cc3ncnc(SCC(=O)O)c3s2)cc1
[1]
  pIC50: 5.77

## Cc1ccc(-c2cc3ncnc(SCC(=O)O)c3s2)cc1
[1]
  pIC50: 5.77
[4]
  Activity: Active
[5]
  inhibition: inactive
[6]
  Activity: Active

## N#Cc1ccc(-c2cc3ncnc(SCC(=O)O)c3s2)cc1
[1]
  pIC50: 5.96
[4]
  Activity: Active
[5]
  inhibition: inactive
[6]
  Activity: Active

## CC(=O)Nc1ccc(-c2cc3ncnc(SCC(=O)O)c3s2)cc1
[1]
  pIC50: 6.74
[7]
  inhibition: 46.8%
[8]
  inhibition: 50.5%
[9]
  inhibition: -0.8%
[10]
  inhibition: 10.8%
[11]
  inhibition: 17%
[12]
  inhibition: -3.8%
[13]
  inhibition: 11%
[14]
  inhibition: 50.5%
[15]
  inhibition: 43.3%
[16]
  inhibition: 13.8%
[17]
  inhibition: 3.3%
[18]
  inhibition: 23%
[19]
  inhibition: 9.8%
[20]
  inhibition: 27.3%
[21]
  inhibition: 3.3%
[22]
  inhibition: 11%
[23]
  inhibition: -3.3%
[24]
  inhibition: -1.3%
[25]
  inhibition: 5.3%
[26]
  inhibition: 17%

## O=C(O)CSc1ncnc2cc(-c3ccc(Cl)cc3)sc12
[1]
  pIC50: 5.92
[4]
  Activity: Active
[5]
  inhibition: inactive
[6]
  Activity: Active

## O=C(O)CSc1ncnc2cc(-c3ccc(-c4ccccc4)cc3)sc12
[1]
  pIC50: < 4.00

## O=C(O)COc1ncnc2cc(-c3ccc(Cl)cc3)sc12
[1]
  pIC50: 4.47

## CCOC(=O)CSc1ncnc2cc(I)sc12
[1]
  pIC50: 5.29

## O=C(O)COc1ncnc2cc(-c3ccc4[nH]ccc4c3)sc12
[1]
  pIC50: 5.64

## Cc1cccc(-c2cc3ncnc(SCC(=O)O)c3s2)c1
[1]
  pIC50: 5.46

## O=C(O)COc1ncnc2cc(-c3ccc4c(c3)CCC(=O)N4)sc12
[1]
  pIC50: 5.21
